Test results as given in paper PMC10899790, “A bromodomain-independent mechanism of gene regulation by the BET inhibitor JQ1: direct activation of nuclear receptor PXR” (Nucleic Acids Research, 2023).

How the values were obtained:
CYP3A4 = test: RNA induction in HepaRG: CYP3A4 mRNA (RT-qPCR); details: differentiated HepaRG, 24 h
Description: (§1) Experiments with HepaRG cells were conducted similarly to previously described ([45]), with modifications. HepaRG cells were seeded in collagen-coated 24-well plates at 5 × 10^5 cells/well in HCM. Cells were differentiated for two weeks with HCM containing 2% DMSO. The cells were then treated with the respective chemicals for 24 h in HCM. The final DMSO concentration for the treatment was 0.5%. Total RNA was isolated from cells with Maxwell 16 LEV SimplyRNA Tissue Kits (Promega), and cDNA was generated from 250 ng of RNA with the SuperScript VILO cDNA Synthesis Kit (Thermo Fisher Scientific). Quantitative real-time polymerase chain reaction (RT-qPCR) was conducted with 2 μl of cDNA using TaqMan Fast Advanced Master Mix (Applied Biosystems) in an Applied Biosystems 7500 Fast Real-Time PCR System. TaqMan gene expression assays specific for CYP3A4 (Hs00604506_m1), PXR (Hs01114267_m1), MYC (Hs00153408_m1) and RNA18S (Hs03928990_g1) were purchased from Thermo Fisher Scientific. Fold induction values were calculated according to the 2^−ΔΔCt method, where ΔCt represents the differences in cycle threshold numbers between the target gene and reference gene and ΔΔCt represents the relative change in these differences between the control and treatment groups ([46]). RNA18S was used as the reference gene for relative quantification of all other genes.

human PXR = biological target: T1, human PXR (Homo sapiens, UniProt O75469); test: PXR transactivation assay (CYP3A4-luciferase reporter)
T1 sequence (O75469 1-434): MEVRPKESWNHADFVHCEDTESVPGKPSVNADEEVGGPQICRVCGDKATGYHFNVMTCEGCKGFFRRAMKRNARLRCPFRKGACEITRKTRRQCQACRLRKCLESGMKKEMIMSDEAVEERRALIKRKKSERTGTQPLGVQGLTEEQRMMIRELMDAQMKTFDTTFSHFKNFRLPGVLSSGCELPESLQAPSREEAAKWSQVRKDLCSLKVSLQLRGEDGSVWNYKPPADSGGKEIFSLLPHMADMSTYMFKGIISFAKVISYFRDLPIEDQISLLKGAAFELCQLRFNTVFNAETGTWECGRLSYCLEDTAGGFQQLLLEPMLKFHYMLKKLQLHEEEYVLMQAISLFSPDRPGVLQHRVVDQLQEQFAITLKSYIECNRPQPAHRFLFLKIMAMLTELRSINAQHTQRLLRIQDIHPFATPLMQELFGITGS
Description: Assays were performed similarly as previously described with minor modifications ([30–32]). HepG2 cells (7.5 × 10^5/well) were plated in six-well tissue culture-treated plates. The following day, cells were co-transfected with pGL3-CYP3A4-luc (2 μg/well), pRL-CMV (200 ng/well) and 100 ng/well of either empty vector (pcDNA3), pcDNA3-FLAG-PXR, pCMV6-mPXR or pGL4.53-PGK-PXR using Lipofectamine 3000 (Thermo Fisher Scientific). Twenty-four hours after transfection, cells were trypsinized and suspended in phenol red-free DMEM (Thermo Fisher Scientific) supplemented with 5% charcoal/dextran-treated FBS (HyClone), and 1 × 10^4 cells/well in 25 μl media were added to white 384-well plates. […] After 24 h, the Dual-Glo Luciferase Assay System (Promega) and EnVision microplate reader (PerkinElmer) were used to measure firefly and Renilla luciferase activities. CMV-driven Renilla luciferase was used as an indicator of general transcriptional modulation by the test compounds and is plotted as fold change (FC) relative to DMSO controls. Assays utilizing pGL4.54[luc2/TK], pGL4.53[luc2/PGK], or pGL4.13[luc2/SV40] were similarly performed and normalized. For the PXR-responsive CYP3A4-luciferase reporter, the measured relative light units (RLU) were normalized for each well using equation (1),
RLUT0901317 represents the measured RLU from wells containing 1 μM T0901317. For mPXR assays, 5 μM PCN was used in place of T0901317.

BET proteins = test system: BET proteins; set-up: method as in PMID 20871596; details: cited from earlier work
HepG2 cells = test: Cytotoxicity assay (CellTiter-Glo); type: cell-based, human; details: HepG2, 24 h
Description: HepG2 cells (1 × 10^4/well in 25 μl phenol red-free DMEM supplemented with 5% charcoal/dextran-treated FBS) were plated and treated as in the transactivation assays. After 24 h compound treatment, the CellTiter-Glo Luminescent Cell Viability Assay (Promega) and an EnVision microplate reader were used to assess cytotoxicity. DMSO wells with cells served as negative controls, and wells without cells served as positive controls. The averaged luminescence signal of the wells without cells was subtracted from the luminescence signals of all other wells, and the background subtracted values were normalized to DMSO-treated wells containing cells to obtain percent cell viability.

PXR = test: RNA induction in HepaRG: PXR RNA (RT-qPCR); type: cell-based, human; details: differentiated HepaRG, 24 h; FC relative to DMSO
Description: as §1

CMV promoter = test: CMV-Renilla luciferase reporter; type: cell-based, human; details: HepG2, 24 h; fold change relative to DMSO
PXR LBD = biological target: T2, PXR LBD (Homo sapiens, UniProt O75469); test: TR-FRET PXR LBD ligand binding assay; details: TR-FRET competition with BODIPY FL vindoline
T2 construct: GST-PXR LBD protein (cat. # PV4841) were purchased from Thermo Fisher Scientific; purchased Thermo Fisher Scientific PV4841
T2 sequence (O75469 146-433 limits assumed): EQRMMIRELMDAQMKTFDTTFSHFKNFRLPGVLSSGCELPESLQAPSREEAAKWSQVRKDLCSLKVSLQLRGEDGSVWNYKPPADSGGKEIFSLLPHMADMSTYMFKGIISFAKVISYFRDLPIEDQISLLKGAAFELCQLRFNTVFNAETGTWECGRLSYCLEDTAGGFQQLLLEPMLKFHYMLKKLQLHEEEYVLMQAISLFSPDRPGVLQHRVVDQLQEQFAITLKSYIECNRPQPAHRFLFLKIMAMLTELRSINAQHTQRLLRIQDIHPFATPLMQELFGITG
Description: The TR-FRET PXR LBD ligand binding assay measures binding of PXR ligands by competition with a fluorescently labeled ligand (BODIPY FL vindoline) (Supplementary Figure S3) and was performed as previously described with minor modifications ([24]). […] BODIPY FL vindoline (15 μl/well, 133.3 nM in assay buffer) was dispensed into 384-well low-volume black assay plates. An Echo 650 Acoustic Liquid Handler then dispensed 60 nl/well of compound stocks or DMSO.

Cc1sc2c(c1C)C(c1ccc(Cl)cc1)=N[C@H](CC(=O)OC(C)(C)C)c1nnc(C)n1-2 [(−)-JQ1]
endogenous CYP3A4 mRNA expression (CYP3A4; FC relative to DMSO): more robustly induced CYP3A4 expression than JQ1 | endogenous CYP3A4 mRNA expression on co-treatment with SPA70 (CYP3A4; co-treated with SPA70): without reducing CYP3A4 in the presence of SPA70 | activation of CYP3A4-luciferase reporter with PXR expressed from a PGK promoter (human PXR; HepG2, 24 h, PGK-driven PXR): retained activation of the CYP3A4-luciferase reporter | activation of PXR-responsive CYP3A4-luciferase reporter (human PXR; human): activated the CYP3A4-luciferase reporter with similar potency but greater efficacy than JQ1 | binding to BET proteins (BET proteins): does not bind BET proteins | cytotoxicity (cell viability) (HepG2 cells): decreased cytotoxicity | cytotoxicity (cell viability) (HepG2 cells; listed as (-)-JQ1): less cytotoxic than JQ1 | PXR RNA expression (PXR): much less than that observed with the BET inhibitors | CMV-Renilla luciferase reporter expression (CMV promoter): only marginally induced the CMV-Renilla luciferase reporter at high concentrations | binding to purified PXR LBD (binding potency) (PXR LBD): comparable to rifampicin in binding potencies
